Measured values published in US11905230B2, “Phenoxyacetic acid derivatives, preparation method thereof and use thereof as medicament” (CHINA PHARMACEUTICAL UNIVERSITY, priority 2017, dated 2024).

How the values were obtained:
hGPR40 receptor = hGPR40 receptor (Homo sapiens (Human), UniProt O14842); experiment: agonistic activity on hGPR40-CHO stably transfected cells (Fluo-4 / FLIPR); format: cell-based; settings: for Agonistic activity at 100 nM (%) / activation at 0.1 µM: relative to linoleic acid well, 100 nM; for EC50: mean ± SD of three determinations
Chain of hGPR40 receptor (O14842 whole entry): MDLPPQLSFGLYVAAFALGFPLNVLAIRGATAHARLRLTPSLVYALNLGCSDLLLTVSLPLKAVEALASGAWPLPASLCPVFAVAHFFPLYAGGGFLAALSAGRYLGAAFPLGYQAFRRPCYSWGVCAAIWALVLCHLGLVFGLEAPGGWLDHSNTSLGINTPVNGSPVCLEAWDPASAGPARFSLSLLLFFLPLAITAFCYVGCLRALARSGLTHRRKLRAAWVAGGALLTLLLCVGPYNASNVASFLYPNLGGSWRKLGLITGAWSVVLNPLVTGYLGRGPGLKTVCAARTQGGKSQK
Experimental: Experimental example 1 The agonistic activity of the compounds of the present invention on hGPR40-CHO stably transfected cells
The present invention used the following method to determine the GPR40 agonistic activity of the compounds of the invention:
hGPR40-CHO stably transfected cells were seeded into a 96-well plate at a density of 3×10^4/well, and incubated overnight in a 37° C., 5% CO2 cell incubator; the medium was discarded, 100 μl of HBSS was added to each well, and 100 μl of Fluo-4 dye solution containing Probenecid was added and incubated at 37° C. for 90 min. After the incubation, the Fluo-4 dye solution was sucked out, 100 μl of HBSS buffer was added, and the dye was washed away; 100 μl of HBSS containing Probenecid was added to each well, and incubated at 37° C. for 10 min; different concentrations of drugs were added to each well of the 96-well plate and FLIPR (Molecular Devices) was used for readings according to the parameter setting table. The experimental results were analyzed.

[1] = Evaluation of hepatotoxicity: serum ALT, AST and TBIL after 4 weeks of dosing; format: in vivo; settings: for AST, ALT and TBIL compared with STZ (blank) group (in words): 4 weeks of dosing; for ALT (IU/L) / AST (IU/L) / TBIL (IU/L): serum, once a day for consecutive 4 weeks, x ± SD, n = 6
Experimental: Experimental example 3 Evaluation of hepatotoxicity of the compounds of the present invention:
The test compounds were administered once a day for consecutive 4 weeks, blood was taken, and the contents of alanine aminotransferase (ALT), aspartate aminotransferase (AST), and total bilirubin (TBIL) were measured.

normal mice = experiment: Oral glucose tolerance test (OGTT) in normal mice; format: in vivo, Kunming mice; settings: for blood glucose level at 15 min / blood glucose level at 0 min / blood glucose level at 30 min / blood glucose level at 60 min / blood glucose level at 120 min: 20 mg/kg by gavage, in mmol/L (unit assumed); for blood glucose level at 15 min: 15 min after glucose load; for blood glucose level at 0 min: 30 min after dosing, before glucose load; for blood glucose level at 30 min: 30 min after glucose load; for blood glucose level at 60 min: 60 min after glucose load; for blood glucose level at 120 min: 120 min after glucose load; for effect on oral glucose tolerance in mice (in words): OGTT in normal mice, 20 mg/kg
Experimental: Experimental example 2 In vivo hypoglycemic activity of the compounds of the present invention can be determined by using an assay system as described below:
The mice were fasted for 12 hours before experiment and water was taken freely, each group was administrated by gavage, blood was taken from the tail, and the blood glucose level was measured (recorded as −30 min).

Cc1cc(OCCCS(C)(=O)=O)cc(C)c1-c1cccc(COc2ccc3c(c2)OC[C@H]3CC(=O)O)c1 [TAK-875, reference compound]
Agonistic activity at 100 nM (%) (hGPR40 receptor): 65% | AST, ALT and TBIL compared with STZ (blank) group (in words) [1]: AST was higher than STZ group | ALT (IU/L) [1]: 72.83 ± 8.4 IU/L | AST (IU/L) [1]: 149.33 ± 15.6 IU/L | TBIL (IU/L) [1]: 2.98 ± 0.4 IU/L | blood glucose level at 15 min (normal mice; OGTT, n = 8): 9.68 ± 0.46 | blood glucose level at 0 min (normal mice; OGTT, n = 8): 4.53 ± 0.25 | blood glucose level at 30 min (normal mice; OGTT, n = 8): 8.61 ± 0.45 | blood glucose level at 60 min (normal mice; OGTT, n = 8): 5.47 ± 0.56 | blood glucose level at 120 min (normal mice; OGTT, n = 8): 4.46 ± 0.57

CC(C)c1ccccc1-c1cccc(CNc2ccc(OCC(=O)O)c(F)c2)c1 [Compound I-16]
activation at 0.1 µM (hGPR40 receptor): 63%

O=C(O)COc1ccc(NCc2cccc(-c3ccccc3C(F)(F)F)c2)cc1 [Compound I-28, 2-(4-((2′-trifluoromethyl-[1,1′-biphenyl]-3-methylene)amino)phenoxy)acetic acid]
Agonistic activity at 100 nM (%) (hGPR40 receptor): 81% | EC50 (hGPR40 receptor): 0.0179 ± 0.0029 µM | ALT (IU/L) [1]: 49.36 ± 7.8 IU/L | AST (IU/L) [1]: 119.68 ± 7.3 IU/L | TBIL (IU/L) [1]: 2.57 ± 0.5 IU/L | effect on oral glucose tolerance in mice (in words) (normal mice): significantly improve oral glucose tolerance | blood glucose level at 15 min (normal mice; OGTT, n = 8): 8.59 ± 0.38 | blood glucose level at 0 min (normal mice; OGTT, n = 8): 4.56 ± 0.48 | blood glucose level at 30 min (normal mice; OGTT, n = 8): 7.43 ± 0.56 | blood glucose level at 60 min (normal mice; OGTT, n = 8): 5.30 ± 0.26 | blood glucose level at 120 min (normal mice; OGTT, n = 8): 4.21 ± 0.45 | blood glucose level at −30 min (normal mice; OGTT, fasted mice, before dosing, x ± SD, n = 8): 4.35 ± 0.36

Cc1cc(OC(F)(F)F)cc(C)c1-c1cccc(CNc2ccc(OCC(=O)O)cc2)c1 [Compound I-29, 2-(4-((4′-trifluoromethoxy-2′,6′-dimethyl-[1,1′-biphenyl]-3-methylene)amino)phenoxy)acetic acid]
Agonistic activity at 100 nM (%) (hGPR40 receptor): 62%

COCCOc1cc(C)c(-c2cccc(CNc3ccc(OCC(=O)O)c(F)c3)c2)c(C)c1 [Compound I-10]
activation at 0.1 µM (hGPR40 receptor): 62%

CCCOc1cc(C)c(-c2cccc(CNc3ccc(OCC(=O)O)c(F)c3)c2)c(C)c1 [Compound I-9, 2-(4-((4′-propoxy-2′,6′-dimethyl-[1,1′-biphenyl]-3-methylene)amino)-2-fluorophenoxy) acetic acid]
activation at 0.1 µM (hGPR40 receptor): 67%

COc1ccc(-c2cccc(CNc3ccc(OCC(=O)O)c(F)c3)c2)c(C)c1 [Compound I-19]
activation at 0.1 µM (hGPR40 receptor): 80% | EC50 (hGPR40 receptor): 0.0184 ± 0.0022 µM | ALT (IU/L) [1]: 50.33 ± 4.6 IU/L | AST (IU/L) [1]: 123.45 ± 7.8 IU/L | TBIL (IU/L) [1]: 2.68 ± 0.3 IU/L | blood glucose level at 15 min (normal mice; OGTT, n = 8): 9.08 ± 0.62 | blood glucose level at 0 min (normal mice; OGTT, n = 8): 4.45 ± 0.56 | blood glucose level at 30 min (normal mice; OGTT, n = 8): 8.21 ± 0.39 | blood glucose level at 60 min (normal mice; OGTT, n = 8): 5.23 ± 0.21 | blood glucose level at 120 min (normal mice; OGTT, n = 8): 4.41 ± 0.44

O=C(O)COc1ccc(NCc2cccc(-c3ccccc3C(F)(F)F)c2)cc1F [Compound I-8, 2-(4-((2′-trifluoromethyl-[1,1′-biphenyl]-3-methylene)amino)-2-fluorophenoxy)acetic acid]
activation at 0.1 µM (hGPR40 receptor): 86% | EC50 (hGPR40 receptor): 0.0117 ± 0.0048 µM | AST, ALT and TBIL compared with STZ (blank) group (in words) [1]: equivalent to the blank group | ALT (IU/L) [1]: 46.63 ± 6.2 IU/L | AST (IU/L) [1]: 112.85 ± 17.76 IU/L | TBIL (IU/L) [1]: 2.52 ± 0.3 IU/L | effect on oral glucose tolerance in mice (in words) (normal mice): significantly improve oral glucose tolerance | blood glucose level at 15 min (normal mice; OGTT, n = 8): 6.73 ± 0.65 | blood glucose level at 0 min (normal mice; OGTT, n = 8): 4.46 ± 0.47 | blood glucose level at 30 min (normal mice; OGTT, n = 8): 6.82 ± 0.58 | blood glucose level at 60 min (normal mice; OGTT, n = 8): 5.17 ± 0.39 | blood glucose level at 120 min (normal mice; OGTT, n = 8): 4.26 ± 0.25

CCOc1ccc(-c2cccc(CNc3ccc(OCC(=O)O)c(F)c3)c2)c(C)c1 [Compound I-13]
activation at 0.1 µM (hGPR40 receptor): 85% | EC50 (hGPR40 receptor): 0.0146 ± 0.0037 µM | AST, ALT and TBIL compared with STZ (blank) group (in words) [1]: equivalent to the blank group | ALT (IU/L) [1]: 52.37 ± 5.3 IU/L | AST (IU/L) [1]: 121.37 ± 13.2 IU/L | TBIL (IU/L) [1]: 2.48 ± 0.5 IU/L | effect on oral glucose tolerance in mice (in words) (normal mice): significantly improve oral glucose tolerance | blood glucose level at 15 min (normal mice; OGTT, n = 8): 7.25 ± 0.58 | blood glucose level at 0 min (normal mice; OGTT, n = 8): 4.61 ± 0.35 | blood glucose level at 30 min (normal mice; OGTT, n = 8): 7.03 ± 0.89 | blood glucose level at 60 min (normal mice; OGTT, n = 8): 5.25 ± 0.72 | blood glucose level at 120 min (normal mice; OGTT, n = 8): 4.38 ± 0.37

Cc1cc(OC(F)(F)F)ccc1-c1cccc(CNc2ccc(OCC(=O)O)cc2)c1 [Compound I-30, 2-(4-((4′-trifluoromethoxy-2′-methyl-[1,1′-biphenyl]-3-methylene)amino)phenoxy)acetic acid]
Agonistic activity at 100 nM (%) (hGPR40 receptor): 76%

Cc1ccc(-c2cccc(CNc3ccc(OCC(=O)O)c(F)c3)c2)c(Cl)c1 [Compound I-5, 2-(4-((2′-chloro-4′-methyl-[1,1′-biphenyl]-3-methylene)amino)-2-fluorophenoxy)acetic acid]
activation at 0.1 µM (hGPR40 receptor): 73%

COc1cc(C)c(-c2cccc(CNc3ccc(OCC(=O)O)c(F)c3)c2)c(C)c1 [Compound I-20, 2-(4-((4′-methoxy-2′,6′-dimethyl-[1,1′-biphenyl]-3-methylene)amino)-2-fluorophenoxy)acetic acid]
activation at 0.1 µM (hGPR40 receptor): 68%

O=C(O)COc1ccc(NCc2cccc(-c3ccccc3F)c2)cc1F [Compound I-4, 2-(4-((2′-fluoro-[1,1′-biphenyl]-3-methylene)amino)-2-fluorophenoxy)acetic acid]
activation at 0.1 µM (hGPR40 receptor): 65%

CCOc1cc(C)c(-c2cccc(CNc3ccc(OCC(=O)O)cc3)c2)c(C)c1 [Compound I-17, 2-(4-((4′-ethoxy-2′,6′-dimethyl-[1,1′-biphenyl]-3-methylene)amino)phenoxy)acetic acid]
Agonistic activity at 100 nM (%) (hGPR40 receptor): 70%

O=C(O)COc1ccc(NCc2cccc(-c3ccccc3)c2)cc1F [Compound I-11, 2-(4-(([1,1′-biphenyl]-3-methylene)amino)-2-fluorophenoxy)acetic acid]
activation at 0.1 µM (hGPR40 receptor): 46%

CCCOc1ccc(-c2cccc(CNc3ccc(OCC(=O)O)c(F)c3)c2)c(C)c1 [Compound I-15]
activation at 0.1 µM (hGPR40 receptor): 75% | EC50 (hGPR40 receptor): 0.0284 ± 0.0028 µM

Cc1cc(OCCCS(C)(=O)=O)cc(C)c1-c1cccc(CNc2ccc(OCC(=O)O)c(F)c2)c1 [Compound I-12]
activation at 0.1 µM (hGPR40 receptor): 68%

CCOc1ccc(-c2cccc(CNc3ccc(OCC(=O)O)cc3)c2)c(C)c1 [Compound I-31]
activation at 0.1 µM (hGPR40 receptor): 79%

CCOc1cc(C)c(-c2cccc(CNc3ccc(OCC(=O)O)c(F)c3)c2)c(C)c1 [Compound I-1, 2-(4-((4′-ethoxy-2′,6′-dimethyl-[1,1′-biphenyl]-3-methylene)amino)-2-fluorophenoxy) acetic acid]
activation at 0.1 µM (hGPR40 receptor): 79%
